Test systems include NCI-H522 lung; SF-295 CNS; RXF 393 renal; HL-60(TB) leukemia; KM12 colon; CAKI-1 renal; CCRF-CEM leukemia; U251 CNS; HCC-2998 colon; MALME-3M melanoma.
Holding throughout (assay): NCI anticancer screen, dose series, 48 h

Structures are written as SMILES. Where “and” joins values, the source holds several entries; their conditions need not be identical. Identical values can stand only once.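 Protocol summary: plate cells (96-well), add compound at 5 concentrations, incubate 48 h, interpolate endpoints linearly. Here, GI50 denotes the concentration required for 50% inhibition of growth. TGI: concentration producing complete growth inhibition.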

For 14 molecules, GI50 and TGI results are on record in PubChem BioAssay (NCI).

For `COc1cc2c3c(n(CCCN=[N+]=[N-])c(=O)c2cc1OC)-c1ccc(N)cc1C3=O`, the GI50 with NCI-H522 lung was 0.133 µM; with SF-295 CNS it was 0.0835 µM; with RXF 393 renal, 0.189 µM; with HL-60(TB) leukemia it was 0.102 µM; in the assay on KM12 colon it was 0.334 µM; in the assay on CAKI-1 renal, 0.132 µM. Also, the GI50 in the assay on CCRF-CEM leukemia was 0.0277 µM; in the assay on U251 CNS it was 0.0832 µM; in the assay with HCC-2998 colon, 0.258 µM; with MALME-3M melanoma it was 0.804 µM. Further, the TGI stood at 0.983 µM with NCI-H522 lung; 1.51 µM in the assay on SF-295 CNS; 0.468 µM in the assay with RXF 393 renal; 1.02 µM in the assay with HL-60(TB) leukemia; 1.16 µM with KM12 colon; 2.8 µM in the assay on CAKI-1 renal. Moreover, the TGI with CCRF-CEM leukemia is 1.1 µM; with U251 CNS, 0.766 µM; in the assay on HCC-2998 colon, 0.856 µM; in the assay with MALME-3M melanoma it was 4.63 µM.

`CCN(CC)CCC(CNc1c2ccc([N+](=O)[O-])cc2nc2cc(OC)c(OC)cc12)c1ccccc1` (stereo not given): the GI50 in the assay with NCI-H522 lung was 0.345 µM and 0.166 µM; in the assay on SF-295 CNS it was 1.09 µM and 0.93 µM; in the assay with RXF 393 renal it was 0.541 µM and 0.228 µM; in the assay on HL-60(TB) leukemia, 1.82 µM and 2.4 µM; in the assay with KM12 colon, 0.276 µM and 0.105 µM; in the assay on CAKI-1 renal, 1.68 µM and 1.58 µM. Moreover, the GI50 in the assay on CCRF-CEM leukemia was 1.19 µM and 1.7 µM; in the assay on U251 CNS, 0.294 µM and 0.203 µM; in the assay with HCC-2998 colon it was 0.138 µM and 0.114 µM; with MALME-3M melanoma, 0.201 µM and 0.191 µM. The TGI was 1.46 µM and 0.435 µM with NCI-H522 lung; 2.49 µM and 2.65 µM with SF-295 CNS; 1.77 µM and 0.662 µM with RXF 393 renal; 3.88 µM and 5.12 µM in the assay with HL-60(TB) leukemia; 1.13 µM and 0.542 µM in the assay with KM12 colon; 3.78 µM and 3.76 µM in the assay with CAKI-1 renal. Also, the TGI in the assay on CCRF-CEM leukemia is 7.29 µM and 10.1 µM; with U251 CNS it was 1.13 µM and 1.22 µM; in the assay with HCC-2998 colon, 0.348 µM and 0.284 µM; with MALME-3M melanoma, 0.454 µM and 0.479 µM.

Consider `Cc1nc2ccc(N=Nc3c(O)ccc4ccccc34)cc2[nH]1`, for which the TGI in the assay with NCI-H522 lung is 54.3 µM; in the assay with SF-295 CNS, more than 100 µM; in the assay on RXF 393 renal, more than 57.9 µM; in the assay with HL-60(TB) leukemia it was 46.8 µM; in the assay with KM12 colon, more than 100 µM; in the assay with CAKI-1 renal, 49.8 µM. The TGI in the assay on CCRF-CEM leukemia is more than 58.3 µM; in the assay with U251 CNS, more than 67.9 µM; with HCC-2998 colon it was more than 70.5 µM; in the assay with MALME-3M melanoma it was more than 66.5 µM.

As for `O=[N+]([O-])c1ccccc1S(=O)(=O)c1ccccc1[N+](=O)[O-]`, the TGI in the assay on NCI-H522 lung was more than 100 µM; with SF-295 CNS, more than 100 µM; in the assay with RXF 393 renal, 83.8 µM; with HL-60(TB) leukemia, more than 100 µM; with KM12 colon, more than 100 µM; with CAKI-1 renal, more than 100 µM. Further, the TGI with CCRF-CEM leukemia is more than 100 µM; in the assay with U251 CNS it was 66.5 µM; in the assay with HCC-2998 colon, more than 100 µM; in the assay on MALME-3M melanoma, more than 100 µM.

As to `COC(=O)C(=C\Sc1ccccc1)/C=C/C(=O)OC(C)(C)C`, the TGI in the assay with NCI-H522 lung is 9.9 µM; in the assay with SF-295 CNS, 34.3 µM; with RXF 393 renal, 7.7 µM; with HL-60(TB) leukemia, 3.73 µM; in the assay on KM12 colon it was 24.3 µM; in the assay with CAKI-1 renal, 12.1 µM. The TGI is 5.35 µM in the assay with CCRF-CEM leukemia, 27.7 µM with U251 CNS, 21.6 µM in the assay with HCC-2998 colon and 30.7 µM in the assay on MALME-3M melanoma.

As to `Nc1cccc(-c2nc3sccn3c2-c2ccnc(NCCCNS(=O)(=O)c3ccc(C(F)(F)F)cc3)n2)c1`, the GI50 was 3.35 µM with NCI-H522 lung; 3.08 µM in the assay with SF-295 CNS; 6.29 µM in the assay with RXF 393 renal; 3.28 µM in the assay with HL-60(TB) leukemia; 3.6 µM with KM12 colon; 3.25 µM in the assay with CAKI-1 renal. Besides, the GI50 was 3.06 µM with CCRF-CEM leukemia, 5.87 µM in the assay with U251 CNS, 5.29 µM in the assay with HCC-2998 colon and 3.94 µM with MALME-3M melanoma. The TGI with NCI-H522 lung was 18.2 µM; in the assay with SF-295 CNS it was 10.1 µM; with RXF 393 renal, more than 100 µM; in the assay on HL-60(TB) leukemia, 11.8 µM; with KM12 colon, 13.8 µM; with CAKI-1 renal, 72.1 µM. Further, the TGI is 14.4 µM in the assay on CCRF-CEM leukemia, more than 100 µM with U251 CNS, 92 µM in the assay with HCC-2998 colon and 18 µM in the assay with MALME-3M melanoma.

As for `COC(=O)C(C(=O)C(=O)Nc1c(Cl)cc([N+](=O)[O-])cc1Cl)c1nc2cc(C)c(C)cc2[nH]c1=O` (stereo not given), the TGI with NCI-H522 lung, with SF-295 CNS, in the assay on RXF 393 renal, in the assay with HL-60(TB) leukemia, in the assay with KM12 colon and with CAKI-1 renal was more than 100 µM throughout. Further, the TGI in the assay on CCRF-CEM leukemia, in the assay on U251 CNS, with HCC-2998 colon and in the assay on MALME-3M melanoma was more than 100 µM throughout.

Consider `CCNC(=O)Nc1ccc(-c2nc3c(c(N4CCOC[C@@H]4C)n2)CCN(C2COC2)C3)cc1`, for which the GI50 with NCI-H522 lung was 0.181 µM and 0.159 µM; in the assay on SF-295 CNS, 0.158 µM and 0.166 µM; in the assay with RXF 393 renal it was 0.137 µM and 0.125 µM; in the assay on HL-60(TB) leukemia, 7.44 µM and 4.61 µM; in the assay on KM12 colon it was 0.507 µM and 0.403 µM; in the assay with CAKI-1 renal, 0.586 µM and 0.179 µM. The GI50 in the assay with CCRF-CEM leukemia was 0.525 µM and 0.393 µM; in the assay on U251 CNS, 0.357 µM and 0.413 µM; in the assay with HCC-2998 colon, 0.748 µM and 0.398 µM; in the assay on MALME-3M melanoma, 0.0743 µM and 0.0825 µM. The TGI was > 24.2 µM and 6.18 µM in the assay on NCI-H522 lung; 1.43 µM and 1.84 µM with SF-295 CNS; 0.727 µM and 0.857 µM in the assay with RXF 393 renal; more than 100 µM in the assay with HL-60(TB) leukemia; more than 100 µM in the assay on KM12 colon; more than 31.5 µM in the assay on CAKI-1 renal. Moreover, the TGI was more than 100 µM in the assay with CCRF-CEM leukemia; more than 100 µM with U251 CNS; more than 100 µM with HCC-2998 colon; 1.6 µM and 1.2 µM in the assay with MALME-3M melanoma.

For the molecule `Cc1nc(NC(=O)COc2cccc(/C=C3\COc4ccccc4C3=O)c2)sc1C`, the GI50 is 1.89 µM in the assay on NCI-H522 lung; 1.64 µM with SF-295 CNS; 1.78 µM in the assay on RXF 393 renal; 2.8 µM in the assay on HL-60(TB) leukemia; 1.5 µM in the assay with KM12 colon; 1.5 µM with CAKI-1 renal. Also, the GI50 with CCRF-CEM leukemia is 3.42 µM; in the assay with U251 CNS, 1.54 µM; with HCC-2998 colon, 1.94 µM; with MALME-3M melanoma, 1.79 µM. The TGI with NCI-H522 lung is 4.41 µM; in the assay on SF-295 CNS it was 3.33 µM; in the assay with RXF 393 renal, 3.48 µM; in the assay with HL-60(TB) leukemia, more than 29.9 µM; with KM12 colon, 2.92 µM; with CAKI-1 renal it was 3.41 µM. In addition, the TGI in the assay with CCRF-CEM leukemia is more than 100 µM; in the assay with U251 CNS, 2.9 µM; with HCC-2998 colon, 3.49 µM; in the assay with MALME-3M melanoma, 4.11 µM.

Turning to `Oc1ccc(Cl)cc1Cc1cc(Cl)cc(Cc2cc(Cl)ccc2O)c1O`, the TGI in the assay with NCI-H522 lung worked out at 3.32 µM; in the assay on SF-295 CNS, 7.36 µM; with RXF 393 renal, 8.86 µM; in the assay with HL-60(TB) leukemia, 8.38 µM; in the assay with KM12 colon it was 10.5 µM; with CAKI-1 renal, 13 µM. Further, the TGI worked out at 15.3 µM in the assay with CCRF-CEM leukemia, 11.8 µM in the assay on U251 CNS, 2.79 µM in the assay on HCC-2998 colon and 5.56 µM in the assay on MALME-3M melanoma.

Regarding `O=Cc1ncc(-c2ccc(C(F)(F)F)cc2)c(NC2CCCCCC2)n1`, the GI50 in the assay on NCI-H522 lung, with SF-295 CNS, in the assay with RXF 393 renal, with HL-60(TB) leukemia, in the assay with KM12 colon and in the assay on CAKI-1 renal was more than 10 µM each time. The GI50 in the assay on CCRF-CEM leukemia, in the assay on U251 CNS, in the assay on HCC-2998 colon and in the assay on MALME-3M melanoma was more than 10 µM throughout. Further, the TGI in the assay with NCI-H522 lung, in the assay with SF-295 CNS, with RXF 393 renal, in the assay with HL-60(TB) leukemia, in the assay on KM12 colon and with CAKI-1 renal was more than 10 µM each time. Also, the TGI in the assay on CCRF-CEM leukemia, with U251 CNS, in the assay with HCC-2998 colon and in the assay with MALME-3M melanoma was more than 10 µM in each case.

As for `CC(=O)c1cc2c3c(c1)c1cc4c(cc1c(=O)n3CC2)OCO4`, the TGI in the assay on NCI-H522 lung is 34 µM; with SF-295 CNS, more than 100 µM; in the assay on RXF 393 renal, more than 100 µM; with HL-60(TB) leukemia it was more than 100 µM; in the assay with KM12 colon it was more than 100 µM; with CAKI-1 renal, 91.3 µM. Besides, the TGI with CCRF-CEM leukemia, in the assay on U251 CNS, in the assay on HCC-2998 colon and in the assay on MALME-3M melanoma was more than 100 µM in each case.

As for `CN(C)c1cc2c(Nc3ccc4nc(Cc5ccccc5)[nH]c4c3)ncnc2cn1`, the GI50 was 10.9 µM with NCI-H522 lung; more than 12.7 µM in the assay on SF-295 CNS; 12 µM in the assay on RXF 393 renal; more than 25 µM with HL-60(TB) leukemia; 13.8 µM in the assay on KM12 colon; 9.82 µM with CAKI-1 renal. Moreover, the GI50 is more than 18.7 µM in the assay with CCRF-CEM leukemia, more than 17.5 µM in the assay with U251 CNS, more than 25 µM in the assay on HCC-2998 colon and more than 16.3 µM in the assay on MALME-3M melanoma. Also, the TGI with NCI-H522 lung is more than 25 µM; with SF-295 CNS, more than 18.9 µM; in the assay with RXF 393 renal, more than 25 µM; in the assay with HL-60(TB) leukemia, more than 25 µM; with KM12 colon, more than 25 µM; with CAKI-1 renal, more than 25 µM. Besides, the TGI in the assay on CCRF-CEM leukemia, in the assay on U251 CNS, with HCC-2998 colon and in the assay with MALME-3M melanoma was more than 25 µM each time.

With `O=S1(=O)COc2ccccc2-c2ncncc21`, the TGI with NCI-H522 lung, with SF-295 CNS, with RXF 393 renal, in the assay on HL-60(TB) leukemia, in the assay on KM12 colon and in the assay with CAKI-1 renal was more than 100 µM each time. In addition, the TGI with CCRF-CEM leukemia, in the assay on U251 CNS, in the assay on HCC-2998 colon and in the assay with MALME-3M melanoma was more than 100 µM throughout.
